Experimental data as given in patent US20250026752A1, “POSITIVE ALLOSTERIC MODULATORS OF THE MUSCARINIC ACETYLCHOLINE RECEPTOR M4” (Vanderbilt University, priority 2021, published 2025).

Assays:
human mAChR M4 = target: T1, human mAChR M4 (Homo sapiens, UniProt P08173); assay: mAChR M4 cell-based functional assay: calcium flux (Fluo-4, FDSS), positive allosteric modulator activity on the EC20 acetylcholine response, hM4-Gqi5 CHO-K1 cells; settings: for Emax at 30 µM: CHO-K1, human M4, % ACh maximum at 30 μM; for EC50: human M4, PAM activity on EC20 acetylcholine response, calcium flux, read-out: Human M4 EC50
T1 construct: expressed in transfected cells; host or cells: CHO-K1 (ATCC), stably expressing hM4 and Gqi5
T1 sequence (P08173 1-479): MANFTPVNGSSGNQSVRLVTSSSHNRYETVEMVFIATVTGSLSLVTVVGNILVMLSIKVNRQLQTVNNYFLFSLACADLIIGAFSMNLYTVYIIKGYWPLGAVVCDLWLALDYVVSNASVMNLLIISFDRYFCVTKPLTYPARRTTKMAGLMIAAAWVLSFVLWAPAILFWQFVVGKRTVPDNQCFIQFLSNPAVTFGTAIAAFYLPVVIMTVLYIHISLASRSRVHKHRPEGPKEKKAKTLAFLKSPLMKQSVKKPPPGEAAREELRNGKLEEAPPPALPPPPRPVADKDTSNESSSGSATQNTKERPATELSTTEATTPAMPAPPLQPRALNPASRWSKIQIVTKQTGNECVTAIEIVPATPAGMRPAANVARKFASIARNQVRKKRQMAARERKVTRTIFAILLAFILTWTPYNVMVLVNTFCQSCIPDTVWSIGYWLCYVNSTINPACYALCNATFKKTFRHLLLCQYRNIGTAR
In short: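 Potentiation was taken as the concentration-dependent rise in the EC20 acetylcholine calcium response, fitted by a four-parameter logistic with EC20 as baseline. Fluo-4-loaded hM4-Gqi5 CHO-K1 cells received 11-point, threefold-diluted compound before acetylcholine at 144 s; FDSS read at 1 Hz.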

[1] = hepatotoxicity of AChE inhibitors; cited from earlier work
[2] = Alzheimer's disease patients; cited from earlier work
[3] = without causing catalepsy; cited from earlier work

Row | SMILES | Emax at 30 µM (human mAChR M4) [%] | EC50 (human mAChR M4) [nM] | elevated liver transaminases observed in patients [1] | effect on psychotic behavioral symptoms (delusions, suspiciousness, vocal outbursts, hallucinations) [2] | activity in animal models with profiles similar to known antipsychotic drugs [3]
1 | Fc1ccc2ncnc(N3CCc4ncc(N5CCc6ncccc65)cc4C3)c2c1 [Compound 319, 4-(3-(2,3-dihydro-1H-pyrrolo[3,2-b]pyridin-1-yl)-7,8-dihydro-1,6-naphthyridin-6(5H)-yl)-6-fluoroquinazoline] | 74 | 30 |  |  | 
2 | Nc1c2c(nc3ccccc13)CCCC2 [tacrine] |  |  | about 30 % of patients |  | 
3 | CCCCCCOc1nsnc1C1=CCCN(C)C1 [xanomeline] |  |  |  | reduce psychotic behavioral symptoms | active in animal models

Continued, in another order:

Row | Emax at 30 µM (human mAChR M4) [%] | EC50 (human mAChR M4) [nM] | SMILES | elevated liver transaminases observed in patients [1] | effect on psychotic behavioral symptoms (delusions, suspiciousness, vocal outbursts, hallucinations) [2] | activity in animal models with profiles similar to known antipsychotic drugs [3]
4 | 93 | 1600 | Cc1ccc2nc(C)nc(N3CCc4ncc(-c5ccccc5C)cc4C3)c2c1 [Compound 316, 2,6-dimethyl-4-(3-(o-tolyl)-7,8-dihydro-1,6-naphthyridin-6(5H)-yl)quinazoline] |  |  | 
5 | 91 | 2800 | Cc1ccc2nc(C)nc(N3CCc4ncc(-c5cc(F)ccc5C)cc4C3)c2c1 [Compound 317, 4-(3-(5-fluoro-2-methylphenyl)-7,8-dihydro-1,6-naphthyridin-6(5H)-yl)-2,6-dimethylquinazoline] |  |  | 
6 | 92 | 70 | Cc1ccc2nc(C)nc(N3CCc4ncc(-c5cnc(F)cc5C)cc4C3)c2c1 [Compound 318, 4-(3-(6-fluoro-4-methylpyridin-3-yl)-7,8-dihydro-1,6-naphthyridin-6(5H)-yl)-2,6-dimethylquinazoline] |  |  | 
